Literature values, collected in publication PMC7395068, “The evolution of strategies to minimise the risk of human drug-induced liver injury (DILI) in drug discovery and development” (Archives of Toxicology, 2020).
Like-named read-outs stand apart in the source and are kept apart here.

Columns and labels:
[1] = system: primary human hepatocytes, NIH3T3 fibroblasts, BSEP, CYP3A4; conditions: cited from earlier work
[2] = cited from earlier work
[3] = cited from earlier work; remark: listed apart in the source
[4] = system: THLE or HepG2 cells, isolated mitochondria, BSEP; conditions: cited from earlier work
[5] = In vitro Assay, ref Schadt 2015

| Compound | Cellular toxicity (3T3 cells) [1, 5] | Combined Assay [1, 5] | GSH adduct HML [1, 5] | Hepatocyte cellular toxicity [1, 5] | MitoTox 3T3 [1, 5] | TDI CYP3A4 [1, 5] | hBSEP inhibition [1, 5] | DILI +VE (5-8), DILI -VE (-4) ([2]; ref Chen 2016) | DILI severity category ([2]; ref Chen 2016) | In vivo DILI ([3]; ref Schadt 2015) | other results |
| --- | --- | --- | --- | --- | --- | --- | --- | --- | --- | --- | --- |
| COCCCOc1cc(C[C@@H](C[C@H](N)[C@@H](O)C[C@H](C(=O)NCC(C)(C)C(N)=O)C(C)C)C(C)C)ccc1OC [aliskiren] | -VE | -VE | -VE | -VE | -VE | -VE | -VE |  |  |  |  |
| O=C1CCc2ccc(OCCCCN3CCN(c4cccc(Cl)c4Cl)CC3)cc2N1 [aripiprazole] |  |  |  |  |  |  |  | -VE | Ambiguous DILI-concern | -VE | Cellular toxicity (3T3 cells) [1]: -VE; Combined Assay [1]: -VE; GSH adduct HML [1]: -VE; Hepatocyte cellular toxicity [1]: -VE; MitoTox 3T3 [1]: -VE; TDI CYP3A4 [1]: -VE; hBSEP inhibition [1]: -VE |
| COC(=O)N[C@H](C(=O)N[C@@H](Cc1ccccc1)[C@@H](O)CN(Cc1ccc(-c2ccccn2)cc1)NC(=O)[C@@H](NC(=O)OC)C(C)(C)C)C(C)(C)C [atazanavir] | +VE | +VE | +VE | +VE | -VE | -VE | +VE | +VE | vLess-DILI-Concern | +VE |  |
| NCC(CC(=O)O)c1ccc(Cl)cc1 (stereo not drawn) [baclofen] | -VE | -VE | -VE | -VE | -VE | -VE | -VE | +VE | vLess-DILI-Concern | -VE |  |
| CCCC1O[C@@H]2C[C@H]3[C@@H]4CCC5=CC(=O)C=C[C@]5(C)[C@H]4[C@@H](O)C[C@]3(C)[C@]2(C(=O)CO)O1 (stereo partly drawn) [budesonide] | +VE | -VE | +VE | +VE | -VE | -VE | +VE | -VE | vNo-DILI-Concern | -VE | In vivo DILI ([3]; […]): -VE |
| CCCC(C)(COC(N)=O)COC(=O)NC(C)C (stereo not drawn) [carisoprodol] |  |  |  |  |  |  |  | -VE | vNo-DILI-Concern | -VE | Cellular toxicity (3T3 cells) [1]: -VE; Combined Assay [1]: -VE; GSH adduct HML [1]: -VE; Hepatocyte cellular toxicity [1]: -VE; MitoTox 3T3 [1]: -VE; TDI CYP3A4 [1]: -VE; hBSEP inhibition [1]: -VE |
| N.N.[Cl][Pt][Cl] [cisplatin] |  |  |  |  |  |  |  |  |  |  | Ro2 Hybrid HRM Score ([4]; In vitro Assay, ref Aleo 2019): -VE |
| CC[C@H]1OC(=O)[C@H](C)[C@@H](O[C@H]2C[C@@](C)(OC)[C@@H](O)[C@H](C)O2)[C@H](C)[C@@H](O[C@@H]2O[C@H](C)C[C@H](N(C)C)[C@H]2O)[C@](C)(OC)C[C@@H](C)C(=O)[C@H](C)[C@@H](O)[C@]1(C)O [clarithromycin] | -VE | +VE | -VE | -VE | +VE | -VE | -VE | +VE | vMost-DILI-Concern | +VE | In vivo DILI ([3]; […]): -VE |
| O=C1CN=C(c2ccccc2Cl)c2cc([N+](=O)[O-])ccc2N1 [clonazepam] |  |  |  |  |  |  |  | +VE | vLess-DILI-Concern | -VE | Cellular toxicity (3T3 cells) [1]: -VE; Combined Assay [1]: -VE; GSH adduct HML [1]: -VE; Hepatocyte cellular toxicity [1]: -VE; MitoTox 3T3 [1]: -VE; TDI CYP3A4 [1]: -VE; hBSEP inhibition [1]: -VE |
| CN(C)CCC=C1c2ccccc2C=Cc2ccccc21 [cyclobenzaprine] | +VE | -VE | -VE | -VE | -VE | -VE | -VE | +VE | vLess-DILI-Concern | -VE |  |
| CCCCc1oc2ccc(NS(C)(=O)=O)cc2c1C(=O)c1ccc(OCCCN(CCCC)CCCC)cc1 [dronedaron] | +VE | -VE | -VE | -VE | -VE | -VE | -VE |  |  | +VE |  |
| CN1c2c(oc(=O)n(-c3ccccn3)c2=O)-c2ccccc2S1(=O)=O [droxicam] | -VE | -VE | -VE | -VE | -VE | -VE | -VE | +VE | vMost-DILI-Concern | +VE |  |
| C=C(CC)C(=O)c1ccc(OCC(=O)O)c(Cl)c1Cl [ethacrynic acid] |  |  |  |  |  |  |  |  |  |  | Partition Hybrid HRM Score, In vitro Assay ([4]; Partition hybrid, ref Aleo 2019): +VE; Ro2 Hybrid HRM Score, In vitro Assay ([4]; Rule of Two hybrid, ref Aleo 2019): +VE |
| O=C(CCCN1CCC(O)(c2ccc(Cl)cc2)CC1)c1ccc(F)cc1 [haloperidol] |  |  |  |  |  |  |  |  |  |  | Partition Hybrid HRM Score ([4]; In vitro Assay, ref Aleo 2019): -VE; Ro2 Hybrid HRM Score ([4]; In vitro Assay, ref Aleo 2019): -VE |
| CC(C)(C)NC(=O)[C@@H]1CN(Cc2cccnc2)CCN1C[C@@H](O)C[C@@H](Cc1ccccc1)C(=O)N[C@H]1c2ccccc2C[C@H]1O [indinavir] |  |  |  |  |  |  |  |  |  |  | Partition Hybrid HRM Score [4]: +VE; Ro2 Hybrid HRM Score [4]: +VE |
| COC(=O)C1=C(C)NC(C)=C(C(=O)OC(C)C)C1c1cccc2nonc12 (stereo not drawn) [isradipine] | +VE | -VE | +VE | +VE | -VE | -VE | +VE | +VE | vLess-DILI-Concern | -VE |  |
| COCCc1ccc(OCC(O)CNC(C)C)cc1 (stereo not drawn) [metoprolol] |  |  |  |  |  |  |  |  |  |  | Partition Hybrid HRM Score ([4]; In vitro Assay, ref Aleo 2019): +VE; Ro2 Hybrid HRM Score ([4]; In vitro Assay, ref Aleo 2019): -VE |
| Cc1ncc2n1-c1ccc(Cl)cc1C(c1ccccc1F)=NC2 [midazolam] |  |  |  |  |  |  |  | -VE | vNo-DILI-Concern | -VE | Cellular toxicity (3T3 cells) [1]: -VE; Combined Assay [1]: +VE; GSH adduct HML [1]: +VE; Hepatocyte cellular toxicity [1]: +VE; MitoTox 3T3 [1]: +VE; TDI CYP3A4 [1]: -VE; hBSEP inhibition [1]: +VE |
| OC(CNCC(O)C1CCc2cc(F)ccc2O1)C1CCc2cc(F)ccc2O1 (stereo not drawn) [nebivolol] | -VE | -VE | -VE | -VE | -VE | -VE | -VE | -VE | Ambiguous DILI-concern | -VE |  |
| CCCc1nc(C(C)(C)O)c(C(=O)O)n1Cc1ccc(-c2ccccc2-c2nnn[nH]2)cc1 [olmesartan] | -VE | -VE | -VE | -VE | -VE | -VE | -VE | -VE | Ambiguous DILI-concern | -VE | In vivo DILI ([3]; […]): -VE |
| Cc1ccc(Nc2nccc(N(C)c3ccc4c(C)n(C)nc4c3)n2)cc1S(N)(=O)=O [pazopanib] |  |  |  |  |  |  |  |  |  |  | Partition Hybrid HRM Score ([4]; In vitro Assay, ref Aleo 2019): +VE; Ro2 Hybrid HRM Score ([4]; In vitro Assay, ref Aleo 2019): +VE |
| COc1ccccc1OCC(O)CN1CCN(CC(=O)Nc2c(C)cccc2C)CC1 (stereo not drawn) [ranolazine] |  |  |  |  |  |  |  | -VE | vNo-DILI-Concern | -VE | Cellular toxicity (3T3 cells) [1]: -VE; Combined Assay [1]: +VE; GSH adduct HML [1]: -VE; Hepatocyte cellular toxicity [1]: -VE; MitoTox 3T3 [1]: +VE; TDI CYP3A4 [1]: -VE; hBSEP inhibition [1]: -VE |
| CCOC(=O)COC1CCN(C(=O)[C@H](C)NC(=O)c2ccc(C(=N)NO)cc2)CC1 [sibrafiban] | -VE | -VE | -VE | -VE | -VE | -VE | -VE |  |  | -VE |  |
| CN1C(C(=O)Nc2nccs2)=C(O)c2ccccc2S1(=O)=O [sudoxicam] |  |  |  |  |  |  |  |  |  |  | Cellular toxicity (3T3 cells) [1]: -VE; Combined Assay [1]: -VE; GSH adduct HML [1]: -VE; Hepatocyte cellular toxicity [1]: -VE; MitoTox 3T3 [1]: -VE; TDI CYP3A4 [1]: -VE; hBSEP inhibition [1]: -VE |
| COc1cc(Cc2cnc(N)nc2N)cc(OC)c1OC [trimethoprim] |  |  |  |  |  |  |  | +VE | vLess-DILI-Concern |  | In vivo DILI ([3]; […]): -VE; In vivo DILI ([3]; ref Garside 2014): +VE |
| Cc1ccc(/C(=C\CN2CCCC2)c2ccccn2)cc1 [triprolidine] |  |  |  |  |  |  |  |  |  |  | Partition Hybrid HRM Score ([4]; In vitro Assay, ref Aleo 2019): -VE; Ro2 Hybrid HRM Score ([4]; In vitro Assay, ref Aleo 2019): -VE |
| Cc1ccc(-c2nc3ccc(C)cn3c2CC(=O)N(C)C)cc1 [zolpidem] |  |  |  |  |  |  |  | -VE | Ambiguous DILI-concern | -VE | Cellular toxicity (3T3 cells) [1]: -VE; Combined Assay [1]: -VE; GSH adduct HML [1]: -VE; Hepatocyte cellular toxicity [1]: -VE; MitoTox 3T3 [1]: -VE; TDI CYP3A4 [1]: -VE; hBSEP inhibition [1]: -VE; In vivo DILI ([3]; […]): -VE |
| capreomycin |  |  |  |  |  |  |  |  |  |  | DILI +VE (5-8), DILI -VE (-4) ([2]; in vivo): -VE; DILI severity category ([2]; in vivo): Ambiguous DILI-concern; In vivo DILI ([3]; in vivo): -VE |
